Results from US11479532B2, “5-aminolevulinate synthase inhibitors and methods of use thereof” (UNIVERSITY OF SOUTH FLORIDA, priority 2017, dated 2022).

Test system: ALAS
Assay: not given
Conditions: background, reference [3]; read-out: IC50 of known ALAS inhibitor; cited from earlier work
In the case of `NC(C(=O)O)C(=O)O` [aminomalonate], the IC50 is listed as 7 µM.

Biological target: 5-aminolevulinate synthase (ALAS) (Mus musculus (Mouse), UniProt P08680)
Sequence (P08680 50-587): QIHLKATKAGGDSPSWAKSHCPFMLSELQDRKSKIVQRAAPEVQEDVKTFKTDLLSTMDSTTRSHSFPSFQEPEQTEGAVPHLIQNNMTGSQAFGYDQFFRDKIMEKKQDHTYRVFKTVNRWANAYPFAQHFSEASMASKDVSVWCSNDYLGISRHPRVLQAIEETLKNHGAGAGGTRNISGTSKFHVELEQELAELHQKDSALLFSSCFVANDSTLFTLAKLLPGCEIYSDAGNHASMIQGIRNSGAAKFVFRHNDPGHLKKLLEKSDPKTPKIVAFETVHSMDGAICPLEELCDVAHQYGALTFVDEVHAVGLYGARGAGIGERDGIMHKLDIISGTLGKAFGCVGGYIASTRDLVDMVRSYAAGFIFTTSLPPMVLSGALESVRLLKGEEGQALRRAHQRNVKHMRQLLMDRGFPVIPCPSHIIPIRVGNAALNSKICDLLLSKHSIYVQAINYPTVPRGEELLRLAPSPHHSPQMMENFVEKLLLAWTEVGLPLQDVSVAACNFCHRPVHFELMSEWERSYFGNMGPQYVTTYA
Assay: ALAS activity
Format: biochemical
Conditions: not given
Description: ALAS activity was determined according the article, Stojanovski, B. M., Breydo, L., Hunter, G. A., Uversky, V. N, Ferreira G. C. (2014) Biochim. Biophys. Acta 1844, 2145-2154, which is hereby incorporated by reference in its entirety.
Molecule `CC1(C)CCN(c2ccc(C(=O)NS(=O)(=O)c3ccc(CN(CCSc4ccccc4)Cc4ccc(S(N)(=O)=O)cc4)cc3)cc2)CC1` [SZ10TA2] has an IC50 of 43 ± 5.8 µM.
Work on `Cn1cc(C(=O)C2CCCCC2)c2cc(C(=O)NS(=O)(=O)c3ccc(CN(CCSc4ccccc4)Cc4ccc(S(N)(=O)=O)cc4)cc3)ccc21` [SZ10TA40] yielded an IC50 of 8.6 ± 0.9 µM.
`Cn1cc(C(=O)C2CCCCC2)c2cc(C(=O)NS(=O)(=O)c3ccc(-c4ccc(C(C)(C)C)cc4)cc3)ccc21` [SZ11TA40] gave an IC50 of 19.3 ± 2.7 µM.
Molecule `O=C(NS(=O)(=O)c1ccc(CNc2cccc([N+](=O)[O-])c2)cc1)c1ccc(CN2C(=O)C(c3ccc(F)cc3F)=C(c3ccc(F)cc3F)C2=O)cc1` [SZ12TA42] has an IC50 of 8.6 ± 0.9 µM.
Molecule `COc1cccc(CN(CCSc2ccccc2)Cc2ccc(S(=O)(=O)NC(=O)c3cccc4ccccc34)cc2)c1` [SZ17TA7] has an IC50 of 50 ± 6.1 µM.
With `COc1ccc(Cc2ccc(C(=O)NS(=O)(=O)c3ccc(-c4ccc(Oc5ccccc5)cc4)cc3)cc2)c(OC)c1OC` [SZ35TA24] the IC50 was 31.4 ± 1.8 µM.
